Measurements: publication PMC7504735, “Enhanced Antigiardial Effect of Omeprazole Analog Benzimidazole Compounds” (Molecules, 2020)
pIC50: −log10 of the molar value. Read-outs that look alike come from different tables or passages of the source.

What was measured:
[1] = target: T1, triosephosphate isomerase (TPI) (Giardia intestinalis, UniProt P36186); settings: cited from earlier work
T1 construct: His-tag (TEV-cleavable) (cleaved yes); made in house

[2] = target: T1, triosephosphate isomerase (TPI); set-up: method as in PMID 28798383; settings: previously reported; cited from earlier work
VERO cells = test system: VERO cells; set-up: method as in PMID 28798383; settings: cited from earlier work
[3] = test system: Giardia lamblia trophozoites; set-up: method as in PMID 28798383; settings: previously reported; cited from earlier work
[4] = target: T1, triosephosphate isomerase (TPI); set-up: method as in PMID 28798383; settings: BHO2 comparison; cited from earlier work
[5] = test system: Giardia lamblia trophozoites; experiment: Antigiardial activity on G. lamblia trophozoites, trypan blue dye exclusion; assay type: cell-based; settings: Giardia duodenalis, 48 h at 37 °C, pH 7.4, trypan blue
Description: Giardia lamblia WB strain (ATCC number 30957) was grown in a modified TYI-S-33 medium supplemented with 10% fetal bovine serum. The parasite was cultivated in 15 mL screw-capped borosilicate glass tubes containing 13 mL medium. The tubes were incubated on a 15° horizontal slant at 37 °C. Giardia was harvested from confluent culture by chilling the tubes on ice for 5‒10 min to detach cells, followed by centrifugation at 800× g for 5 min.
The antigiardial activity of the prepared compounds was tested as described. One milligram of a test compound was dissolved in 10 L of DMSO and topped up with 1 mL growth medium. The solution was filter-sterilized using 0.22-m syringe filters and the appropriate volumes of the solutions were taken to prepare the concentration of each compound in 1.5 mL microtubes. For each preparation, concentrations of 500, 250, 125, 62, and 31 µg/mL were prepared in a final volume of 1.5 mL. Each tube was inoculated with 5 × 10^4 trophozoites of G. lamblia and then incubated for 48 h at 37 °C. After incubation, 75 L of the treated trophozoites were subcultured individually for another 48 h in a fresh medium free of compounds. At the end of this period, the viable trophozoites were counted. Each compound was assayed in duplicate in three independent experiments. In each assay, appropriate controls were also tested, including a sample without compound and another with DMSO.
The parasites in each tube were counted using a standard hemocytometer at 10× objective. In each count, trypan blue was employed to distinguish live parasites from dead ones. To permit detachment of Giardia, the tubes were placed on ice for 10 min and the parasites were then centrifuged at 800× g for 10 min. The supernatant was discarded and 1 mL fresh medium was added to each tube. The final suspension was prepared by mixing 25 μL of the parasite suspension in each tube with 100 μL of 0.4% trypan blue in phosphate-buffered saline (PBS). The 50% inhibitory concentration (IC50) was employed as a parameter for biological activity. The IC50 is the concentration of compounds that cuts the number of parasites to half that in the negative control (growth medium + DMSO + parasites). Lastly, the 50% inhibitory concentration (IC50) was calculated.

[6] = target: T1, triosephosphate isomerase (TPI); experiment: Inactivation of recombinant TPI enzyme with compounds; assay type: biochemical
Description: The TPI from G. lamblia was expressed and purified. […] When the culture reached A600 = 0.8, it was induced using 0.4 mM IPTG and incubated overnight at 30 °C with shaking at 180 rpm. After the bacteria were collected by centrifugation (10,000× g, 15 min) and suspended in 40 mL of lysis buffer, pH 8.0 (50 mM Tris, 50 mM NaCl, 5 mM β-mercaptoethanol, and 1 mM phenylmethylsulfonyl fluoride). The bacterial suspension was disrupted by sonication and centrifuged at 9000× g for 1 h at 4 °C. Protein purification was performed by immobilized metal affinity chromatography (IMAC) using a Profinity Ni^2+ charged resin (Bio-Rad) previously reported by Enriquez-Flores et al.. The His-tag sequence was removed from the TIM by incubation with TEVP at a molar ratio of 30:1 (TPI/TEVP) at room temperature for 17 h in digestion buffer, pH 8.0 (50 mM Tris, 0.5 mM ethylene diamine tetraacetic acid (EDTA), and 1 mM dithiothreitol). The enzyme concentration was spectrophotometrically determined at 280 nm, and the enzyme was used immediately.
Enzyme activity of TPI was determined spectrophotometrically as described by monitoring the conversion of glyceraldehyde-3-phosphate (GAP) to dihydroxyacetone phosphate (DHAP). […] The standard reaction mixture contained 1 mM GAP, 0.2 mM NADH, and 0.9 units/mL of α-GDH in TE buffer (100 mM triethanolamine, 10 mM EDTA, pH 7.4). The reaction was initiated by adding 5 ng/mL of TPI to the reaction mixture.
To determine the inactivation of the TPI enzyme from G. lamblia, we performed inactivation assays of the enzyme in the presence of the synthesized compounds. The compounds’ stock solutions were freshly prepared using 100% dimethyl sulfoxide (DMSO) as the solvent at 25 mM. […] After the incubation period, the enzymatic activity was measured by withdrawing an aliquot of each experimental condition, as described above. The results were expressed in terms of the percentage of activity versus the compound’s concentration.

T1 sequence (P36186 whole entry): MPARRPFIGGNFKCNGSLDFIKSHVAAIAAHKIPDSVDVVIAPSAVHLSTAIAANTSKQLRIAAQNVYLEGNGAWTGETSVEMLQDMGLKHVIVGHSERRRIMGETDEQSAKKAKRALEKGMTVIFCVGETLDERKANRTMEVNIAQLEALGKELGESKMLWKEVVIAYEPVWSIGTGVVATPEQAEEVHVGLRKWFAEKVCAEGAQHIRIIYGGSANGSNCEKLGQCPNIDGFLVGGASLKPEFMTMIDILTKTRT

SMILES | Second-order inactivation constant k2 ([1]; previously reported) | pIC50 [2] | pIC50 [3] | also measured
COc1c(C)cnc(C[S+]([O-])c2nc3ccc(C)cc3[nH]2)c1C (stereo not drawn) [BHO2] | 1.6 M⁻¹ s⁻¹ | 4.19 | 3.92 | CC50 for mammal cells (VERO) (VERO cells): millimolar ranges; Loss of intrinsic fluorescence signal of TPI [4]: 25%
[O-][S+](Cc1ccccn1)c1nc2ccccc2[nH]1 (stereo not drawn) [H-BZM1] |  |  |  | pIC50 [5]: 3.17; pIC50 [6]: < 3.30; Loss (reduction) of TPI enzyme activity ([6]; 500 µM compound, 2 h at 37 °C): 25%
COc1ccc2[nH]c([S+]([O-])Cc3ncc(C)c(OC)c3C)nc2c1 (stereo not drawn) [Omeprazole] | 0.78 M⁻¹ s⁻¹ | 3.65 | 3.52 | 
COCCCOc1ccnc(C[S+]([O-])c2nc3ccccc3[nH]2)c1C (stereo not drawn) [rabeprazole] |  |  |  | Second-order inactivation constant k2 ([1]; reported by García-Torres et al.): 2.66 M⁻¹ s⁻¹
